Experimental data as given in ChEMBL document CHEMBL1201862, “PubChem BioAssay data set” (2004).
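Values below derive from 48-hour exposures of cells grown in 96-well plates, with endpoints linearly interpolated between the two concentrations bracketing the appropriate inhibition level. At the GI50, growth is halved.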 Activity calls are given as the source filed them. Rule as the data show it: active = GI50 up to about 1.1 µM and inactive = higher.

What was measured:
Assay in all cases: NCI-60 cell line screen, 48 h
HL-60 = tested on: HL-60
SF-295 = tested on: SF-295
A498 = tested on: A498
EKVX = tested on: EKVX
SK-OV-3 = tested on: SK-OV-3
SW-620 = tested on: SW-620
DU-145 = tested on: DU-145
KM12 = tested on: KM12
OVCAR-4 = tested on: OVCAR-4
Hs-578T = tested on: Hs-578T
RPMI-8226 = tested on: RPMI-8226
MDA-MB-435 = tested on: MDA-MB-435
CAKI-1 = tested on: CAKI-1
LOX IMVI = tested on: LOX IMVI
MDA-MB-231 = tested on: MDA-MB-231
MOLT-4 = tested on: MOLT-4
UACC-62 = tested on: UACC-62
Malme-3M = tested on: Malme-3M
SK-MEL-2 = tested on: SK-MEL-2
NCI-H460 = tested on: NCI-H460

Compound	GI50 (HL-60)	GI50 (SF-295)	GI50 (A498)	GI50 (EKVX)	GI50 (SK-OV-3)	GI50 (SW-620)	GI50 (DU-145)	GI50 (KM12)	GI50 (OVCAR-4)	GI50 (Hs-578T)	GI50 (RPMI-8226)	GI50 (MDA-MB-435)	GI50 (CAKI-1)	GI50 (LOX IMVI)	GI50 (MDA-MB-231)	GI50 (MOLT-4)	GI50 (UACC-62)	GI50 (Malme-3M)	GI50 (SK-MEL-2)	GI50 (NCI-H460)
CC1(C)CCC[C@]2(C)[C@@H](C=O)C(C=O)=CC[C@@H]12 [POLYGODIAL]	18.4 µM (inactive)	21.9 µM (inactive)	40.9 µM (inactive)	24.8 µM (inactive)	30.8 µM (inactive)	35.4 µM (inactive)	18.5 µM (inactive)	14.7 µM (inactive)	15.8 µM (inactive)	27.9 µM (inactive)	10.7 µM (inactive)	36.6 µM (inactive)	6.82 µM (inactive)	19.1 µM (inactive)	10.6 µM (inactive)	9.33 µM (inactive)	18.4 µM (inactive)	15.2 µM (inactive)	18.1 µM (inactive)	
CC(=O)Oc1ccc(C2SCc3nc4ccccc4n32)cc1 (configuration not stated)	10.6 µM (inactive)	21.7 µM (inactive)	27.2 µM (inactive)	26.9 µM (inactive)	26.8 µM (inactive)	35.8 µM (inactive)	51.5 µM (inactive)	15.3 µM (inactive)	24.4 µM (inactive)	32.5 µM (inactive)	14.5 µM (inactive)	5.48 µM (inactive)	24.4 µM (inactive)	29.6 µM (inactive)	27.4 µM (inactive)	16.1 µM (inactive)	29.7 µM (inactive)	30.2 µM (inactive)	22.5 µM (inactive)	41.1 µM (inactive)
COc1ccc(C(c2ccccc2)N2C(=O)CCC2C(=O)O)cc1OC (configuration not stated)	> 100 µM (inactive)	> 100 µM (inactive)	> 100 µM (inactive)	> 100 µM (inactive)	> 100 µM (inactive)	> 100 µM (inactive)	> 100 µM (inactive)	> 100 µM (inactive)	> 100 µM (inactive)	> 100 µM (inactive)	> 100 µM (inactive)	> 100 µM (inactive)	> 100 µM (inactive)	> 100 µM (inactive)	> 100 µM (inactive)	> 100 µM (inactive)	> 100 µM (inactive)	> 100 µM (inactive)	> 100 µM (inactive)	> 100 µM (inactive)
O=NN(CCCl)C(=O)NC1CCC(=O)NC1=O (configuration not stated)	66.7 µM (inactive)	30.3 µM (inactive)	174 µM (inactive)	415 µM (inactive)	526 µM (inactive)	67.8 µM (inactive)	337 µM (inactive)	212 µM (inactive)	893 µM (inactive)	348 µM (inactive)	220 µM (inactive)	191 µM (inactive)	270 µM (inactive)	48.2 µM (inactive)	286 µM (inactive)	49.2 µM (inactive)	25.5 µM (inactive)	221 µM (inactive)	225 µM (inactive)	83.8 µM (inactive)
CCCCCC(/C=C/[C@@H]1[C@@H](C(O)CCCCCC(=O)OC)C(=O)C[C@H]1O[Si](C)(C)C(C)(C)C)OCOCCOC (some centres not stated)		17.9 µM (inactive)	20 µM (inactive)	18.8 µM (inactive)	18.8 µM (inactive)	5.12 µM (inactive)	18 µM (inactive)	6.62 µM (inactive)	18.5 µM (inactive)	9.84 µM (inactive)	2.71 µM (inactive)	8 µM (inactive)	17.2 µM (inactive)	3.54 µM (inactive)	21.7 µM (inactive)	1.73 µM (inactive)	13.1 µM (inactive)	16.8 µM (inactive)	17 µM (inactive)	29.7 µM (inactive)
O=c1[nH]c2cc3[nH]c4ncccc4c(=O)c3cc2[nH]1	> 10 µM (inactive)	> 10 µM (inactive)	> 10 µM (inactive)	> 10 µM (inactive)	> 10 µM (inactive)	> 10 µM (inactive)	> 10 µM (inactive)	> 10 µM (inactive)	> 10 µM (inactive)	> 10 µM (inactive)	> 10 µM (inactive)	> 10 µM (inactive)	> 10 µM (inactive)	> 10 µM (inactive)	> 10 µM (inactive)	> 10 µM (inactive)	> 10 µM (inactive)	> 10 µM (inactive)	> 10 µM (inactive)	> 10 µM (inactive)
Cc1cc(S(N)(=O)=O)c(S/C(=N\Nc2ccc([N+](=O)[O-])cc2)c2ccc(Cl)cc2)cc1Cl	44.3 µM (inactive)	2.11 µM (inactive)	4.32 µM (inactive)	6.19 µM (inactive)	1.96 µM (inactive)	3.22 µM (inactive)	2.19 µM (inactive)	1.94 µM (inactive)	1.71 µM (inactive)	4.88 µM (inactive)	2.58 µM (inactive)	2.27 µM (inactive)	3.42 µM (inactive)	2.1 µM (inactive)	2.94 µM (inactive)	4.1 µM (inactive)	4.57 µM (inactive)	1.59 µM (inactive)	2.76 µM (inactive)	2.17 µM (inactive)
CC(C(=O)O)C1Nc2ccccc2NC1=O (configuration not stated)	23.3 µM (inactive)	> 100 µM (inactive)	> 100 µM (inactive)	> 100 µM (inactive)	> 100 µM (inactive)	> 100 µM (inactive)	> 100 µM (inactive)	> 100 µM (inactive)	> 100 µM (inactive)	> 100 µM (inactive)	37.4 µM (inactive)	> 100 µM (inactive)	> 100 µM (inactive)	> 100 µM (inactive)	> 100 µM (inactive)	25.2 µM (inactive)	> 100 µM (inactive)	> 100 µM (inactive)	> 100 µM (inactive)	> 100 µM (inactive)
O=C(NCCSSCCNC(=O)/C(Cc1ccc(O)c(Br)c1)=N/O)/C(Cc1ccc(O)c(Br)c1)=N/O [PSAMMAPLIN A]	0.426 µM (active)	1.34 µM (inactive)	2.9 µM (inactive)	4.49 µM (inactive)	0.933 µM (active)	1.64 µM (inactive)	1.89 µM (inactive)	1.47 µM (inactive)	3.1 µM (inactive)	1.77 µM (inactive)	1.36 µM (inactive)	1.51 µM (inactive)	1.47 µM (inactive)	1.3 µM (inactive)	1.78 µM (inactive)	0.402 µM (active)	1.72 µM (inactive)	0.597 µM (active)	1.1 µM (active)	0.902 µM (active)
O=C1C(NCCc2ccc(O)c(O)c2)=CC(=O)c2ncccc21	15.8 µM (inactive)	12.6 µM (inactive)	20.7 µM (inactive)	17.6 µM (inactive)	15.7 µM (inactive)	14.4 µM (inactive)	9.86 µM (inactive)	13.2 µM (inactive)	16.9 µM (inactive)	5.82 µM (inactive)	16.6 µM (inactive)	1.7 µM (inactive)	5.52 µM (inactive)	4.45 µM (inactive)	5.14 µM (inactive)	8.51 µM (inactive)	5.37 µM (inactive)	4.95 µM (inactive)	3.1 µM (inactive)	9.46 µM (inactive)
CC[C@@H]1/C=C/C=C/C[C@H](C)[C@@H](O)[C@@H](C)C(=O)[C@H](C)[C@@H](O)[C@H](C)C(=O)[C@H](C)[C@@H](O)[C@H](C)/C=C/C(=O)O[C@H]2[C@@H](C)[C@@H](CC1)O[C@@]1(CC[C@@H](C)[C@@H](CC(C)O)O1)[C@@H]2C (some centres not stated)	0.00847 µM (active)	< 0.0025 µM (active)	0.0989 µM (active)	< 0.0025 µM (active)	7.76 µM (inactive)	5.32 µM (inactive)	3.37 µM (inactive)	3.41 µM (inactive)	0.057 µM (active)	6.03 µM (inactive)	0.057 µM (active)	3.11 µM (inactive)	4.15 µM (inactive)	5.83 µM (inactive)	4.35 µM (inactive)	0.815 µM (active)	3.32 µM (inactive)	6.34 µM (inactive)	4.58 µM (inactive)	2.17 µM (inactive)
Nc1ncn(C2OC(COP(=O)(O)O)C(O)C2O)c(=O)n1 (configuration not stated)	> 64.4 µM (inactive)	> 100 µM (inactive)	> 100 µM (inactive)	> 58.2 µM (inactive)	> 100 µM (inactive)	> 100 µM (inactive)	> 100 µM (inactive)	> 100 µM (inactive)	> 100 µM (inactive)	> 100 µM (inactive)	> 100 µM (inactive)	> 53.2 µM (inactive)	> 71.9 µM (inactive)	> 100 µM (inactive)	> 100 µM (inactive)	2.39 µM (inactive)	> 100 µM (inactive)	> 81.8 µM (inactive)	> 100 µM (inactive)	52.8 µM (inactive)
O=S(=O)(N/C(=N\O)Nc1ccc(Cl)cc1)c1ccccc1	4.99 µM (inactive)	36.6 µM (inactive)	6.67 µM (inactive)	10.3 µM (inactive)	27.9 µM (inactive)	10 µM (inactive)	18.5 µM (inactive)	24.2 µM (inactive)	2.33 µM (inactive)	6.46 µM (inactive)	4.13 µM (inactive)	9.23 µM (inactive)	2.07 µM (inactive)	13.4 µM (inactive)	29.5 µM (inactive)	3.23 µM (inactive)	14.6 µM (inactive)	4.34 µM (inactive)	11.6 µM (inactive)	13.4 µM (inactive)
CN(C)CCSCCO	97.1 µM (inactive)	> 100 µM (inactive)	> 100 µM (inactive)	> 100 µM (inactive)	> 100 µM (inactive)	> 100 µM (inactive)	> 100 µM (inactive)	> 100 µM (inactive)	> 100 µM (inactive)	> 100 µM (inactive)	> 100 µM (inactive)	> 100 µM (inactive)	> 100 µM (inactive)	> 100 µM (inactive)	> 100 µM (inactive)		> 100 µM (inactive)	> 100 µM (inactive)	> 100 µM (inactive)	> 100 µM (inactive)
